Patent US8420144B2, “Kokumi-imparting agent, method of using, and compositions containing same” (Ajinomoto Co., Inc., priority 2005, dated 2013)
Numbered stars: 1 amine (or outer) side, 2 acyl side, 3 side chain; on linkers, the order of the positions; unused ones are H or OH. Square brackets hold non-standard residues; d marks the D form. Ends that are not written are not given here. γGlu = O=C(O)[C@H](CCC(=O)[*:2])N[*:1]; Orn = NCCC[C@H](N)C(=O)O

Biological target: T1, human calcium receptor (Homo sapiens, UniProt P41180)
T1 construct: expressed in transfected cells; host or cells: Xenopus laevis oocytes microinjected with cRNA; gene amplified by PCR from human kidney cDNA (Clontech)
T1 sequence (P41180 20-1078): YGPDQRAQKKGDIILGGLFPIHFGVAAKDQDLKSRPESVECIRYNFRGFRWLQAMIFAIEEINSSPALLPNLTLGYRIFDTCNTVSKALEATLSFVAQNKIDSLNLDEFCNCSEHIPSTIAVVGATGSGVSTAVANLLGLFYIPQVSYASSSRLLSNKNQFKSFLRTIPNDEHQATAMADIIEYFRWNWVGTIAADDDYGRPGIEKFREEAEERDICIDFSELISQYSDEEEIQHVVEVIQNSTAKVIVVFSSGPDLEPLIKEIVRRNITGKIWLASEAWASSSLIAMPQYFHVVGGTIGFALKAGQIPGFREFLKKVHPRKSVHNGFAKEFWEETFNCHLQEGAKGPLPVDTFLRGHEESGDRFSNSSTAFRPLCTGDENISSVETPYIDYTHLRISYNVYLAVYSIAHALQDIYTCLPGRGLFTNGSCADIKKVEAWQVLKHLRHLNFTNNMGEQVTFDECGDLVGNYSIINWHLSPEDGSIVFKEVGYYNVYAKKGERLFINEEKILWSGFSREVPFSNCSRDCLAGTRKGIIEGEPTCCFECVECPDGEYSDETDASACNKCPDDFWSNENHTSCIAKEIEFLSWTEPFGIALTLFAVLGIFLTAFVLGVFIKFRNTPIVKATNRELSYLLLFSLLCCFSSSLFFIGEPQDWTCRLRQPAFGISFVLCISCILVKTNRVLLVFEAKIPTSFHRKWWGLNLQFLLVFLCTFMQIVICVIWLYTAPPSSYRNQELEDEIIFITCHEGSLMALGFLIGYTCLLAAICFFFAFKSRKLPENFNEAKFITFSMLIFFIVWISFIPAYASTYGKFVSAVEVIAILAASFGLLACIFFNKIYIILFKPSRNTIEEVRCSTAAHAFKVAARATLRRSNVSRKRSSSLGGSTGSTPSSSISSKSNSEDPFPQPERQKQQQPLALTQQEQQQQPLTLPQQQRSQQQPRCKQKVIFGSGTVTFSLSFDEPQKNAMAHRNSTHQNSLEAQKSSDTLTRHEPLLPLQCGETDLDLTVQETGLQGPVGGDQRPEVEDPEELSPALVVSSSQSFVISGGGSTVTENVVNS
Experiment: Calcium receptor activation activity: Ca ion concentration-dependent Cl ionic current in Xenopus laevis oocyte expression system
Assay type: cell-based
Conditions: for calcium receptor activation activity (Ca ion concentration-dependent Cl response current): oocytes voltage-clamped at −70 mV; for Activity (lowest concentration for which current was detected): added at 1000, 300, 100, 30, 10, 3, 1, 0.3 and 0.1 μM
Experimental: To evaluate calcium receptor activation activity, a Ca ion concentration-dependent Cl ionic current measuring method using a Xenopus laevis oocyte expression system was used. If each activator is added to Xenopus laevis oocytes expressing the calcium receptor, intracellular Ca ions increase. Then, the Ca ion concentration-dependent Cl channel opens, and the intracellular current value changes as an ionic current. By measuring the change in this intracellular current value, the presence or absence of calcium receptor activation activity can be determined.
Specifically, the abdomen of Xenopus laevis was opened, and an egg batch was taken out and treated with a 1% collagenase solution at 20° C. for 2 hours to obtain individual oocytes. Into the oocytes, 50 nl of 1 μg/μl receptor cRNA or 50 nl of sterilized water per oocyte was introduced by using a micro glass capillary, and the oocytes were cultured at 18° C. for 2 or 3 days. For the culture, a solution obtained by adding 2 mM pyruvic acid, 10 U/ml of penicillin, and 10 μg/ml of streptomycin to the solution in Example 2 was used. After the culture, a test solution was added to the oocytes containing either the cRNA or sterilized water. Electrophysiological measurement was performed by using an amplifier, Geneclamp500 (Axon), and recording software, AxoScope 9.0 (Axon). The oocytes were voltage-clamped at −70 mV by the double electrode voltage clamp method, and the intracellular current was measured via the Ca ion concentration-dependent Cl ion channel. The maximum value of the intracellular current was considered as the response current value.
Calcium receptor activation activity of L-amino acids was evaluated by using the method described in Example 13. That is, oocytes containing either cRNA of the calcium receptor or sterilized water were prepared, and voltage-clamped at −70 mV by the double electrode voltage clamp method. To the voltage-clamped oocytes, alanine (10 mM), arginine (10 mM), asparagine (10 mM), aspartic acid (10 mM), cysteine (10 mM), glutamine (10 mM), glutamic acid (10 mM), glycine (10 mM), histidine (10 mM), isoleucine (10 mM), leucine (10 mM), lysine (10 mM), methionine (10 mM), phenylalanine (10 mM), proline (10 mM), serine (10 mM), threonine (10 mM), tryptophan (10 mM), tyrosine (10 mM), valine (10 mM), ornithine (10 mM), taurine (10 mM), or hydroxyproline (10 mM) was added, and Ca ion concentration-dependent Cl response current was measured. […] As for the aforementioned amino acids, the activation activity was reported in Proc. Natl. Acad. Sci. USA, 2000 Apr. 25, 97(9):4814-9.
Calcium receptor activation activity of D-cysteine was evaluated by using the method described in Example 13. That is, oocytes containing either cRNA of the calcium receptor or sterilized water were prepared, and voltage-clamped at −70 mV by the double electrode voltage clamp method. To the voltage-clamped oocytes, D-cysteine (10 mM), L-cysteine (10 mM), D-tryptophan (10 mM), or L-tryptophan (10 mM) was added, and Ca ion concentration-dependent Cl response current was measured.
Calcium receptor activation activity of peptides was evaluated by using the method described in Example 13. That is, oocytes containing either cRNA of the calcium receptor or sterilized water were prepared, and voltage-clamped at −70 mV by the double electrode voltage clamp method.
Calcium receptor activation activity of peptides was evaluated in the same manner as that of Example 17. Each of the peptides shown in Table 2 was added to voltage-clamped oocytes at 1000 μM, 300 μM, 100 μM, 30 μM, 10 μM, 3 μM, 1 μM, 0.3 μM, and 0.1 μM, and Ca ion concentration-dependent Cl response current was measured.

| Molecule | Activity (lowest concentration for which current was detected) [µM] | further results |
| --- | --- | --- |
| N[C@@H](CCC(=O)N[C@@H](CSN=O)C(=O)NCC(=O)O)C(=O)O [γ-Glu-Cys(SNO)-Gly] | – | calcium receptor activation activity (Ca ion concentration-dependent Cl response current) (50 μM peptide): definitive calcium receptor activation activity |
| [γGlu]-Val-Met | 1000 | – |
| γ-Glu-t-Leu | 100 | – |
| [γGlu]-Val-Arg | 1000 | – |
| [γGlu]-Val-[Orn] | 100 | – |
| [γGlu]-Thr | – | calcium receptor activation activity (Ca ion concentration-dependent Cl response current) (50 μM peptide): definitive calcium receptor activation activity |
| [γGlu]-Val-Pro | 30 | – |
| [γGlu]-Val-Asn | 30 | – |
| [γGlu]-Val-Cys | 10 | – |
| γ-Glu-Cys(S-Me)-Gly | 3 | – |
| [γGlu]-Val-Thr | 1000 | – |
| [γGlu]-Val-Gln | 10 | – |
| [γGlu]-Gly | – | calcium receptor activation activity (Ca ion concentration-dependent Cl response current) (500 μM peptide): definitive calcium receptor activation activity |
| N[C@@H](Cc1ccc(O)cc1)C(=O)O [tyrosine, reference compound] | – | calcium receptor activation activity (Ca ion concentration-dependent Cl response current) (10 mM amino acid): definite calcium receptor activation activity |
| Glu-Cys | – | calcium receptor activation activity (Ca ion concentration-dependent Cl response current) (50 μM peptide): definitive calcium receptor activation activity |
| [γGlu]-Gly-Gly | 30 | – |
| Asp-Gly | – | calcium receptor activation activity (Ca ion concentration-dependent Cl response current) (1 mM peptide): definitive calcium receptor activation activity |
| N[C@@H](CS)C(=O)O [cysteine, reference compound] | – | calcium receptor activation activity (Ca ion concentration-dependent Cl response current) (10 mM amino acid): definite calcium receptor activation activity |

| Molecule | Activity (lowest concentration for which current was detected) [µM] | further results |
| --- | --- | --- |
| γ-Glu-Val-Asp | 1000 | – |
| Cys-Gly | – | calcium receptor activation activity (Ca ion concentration-dependent Cl response current) (1 mM peptide): definitive calcium receptor activation activity |
| γ-Glu-Tau | 300 | – |
| N[C@@H](Cc1c[nH]cn1)C(=O)O [histidine, reference compound] | – | calcium receptor activation activity (Ca ion concentration-dependent Cl response current) (10 mM amino acid): definite calcium receptor activation activity |
| N[C@@H](Cc1c[nH]c2ccccc12)C(=O)O [tryptophan, reference compound] | – | calcium receptor activation activity (Ca ion concentration-dependent Cl response current) (10 mM amino acid): definite calcium receptor activation activity |
| [γGlu]-Ser-Gly | 30 | – |
| [γGlu]-Val-Val | 1000 | – |
| Cys-Met | – | calcium receptor activation activity (Ca ion concentration-dependent Cl response current) (1 mM peptide): definitive calcium receptor activation activity |
| [γGlu]-Val-Lys | 1000 | – |
| γ-Glu-Cys(S-allyl)-Gly | 100 | – |
| [γGlu]-Val-Glu | 1000 | – |
| [γGlu]-Val-His | 100 | – |
| [γGlu]-[γGlu]-Val | 1000 | – |
| [γGlu]-Val-Ser | 30 | – |
| N[C@@H](Cc1ccccc1)C(=O)O [phenylalanine, reference compound] | – | calcium receptor activation activity (Ca ion concentration-dependent Cl response current) (10 mM amino acid): definite calcium receptor activation activity |
| Leu-Asp | – | calcium receptor activation activity (Ca ion concentration-dependent Cl response current) (1 mM peptide): definitive calcium receptor activation activity |
| Gly-Cys | – | calcium receptor activation activity (Ca ion concentration-dependent Cl response current) (500 μM peptide): definitive calcium receptor activation activity |
